Results reported in article PMC11576293, “New series of 4,6-diaryl pyrimidines: facile synthesis and antiproliferative activity as dual EGFR/VEGFR-2 inhibitors” (Frontiers in Chemistry, 2024).

Legend:
Assay in all cases: NCI-60 single-dose screen
Assay type in all cases: cell-based
IGROV1 = details: Homo sapiens, IGROV-1, single dose 10 µM, '-' = no inhibition, read-out: % Growth Inhibition
Procedure, shortened: (§1)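 Compounds tested once at 10 μM across the NCI-60 panel of 60 human cancer cell lines spanning nine tumour types (leukemia, lung, colon, CNS, melanoma, ovarian, renal, prostate, breast), run by the NCI Developmental Therapeutics Program.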

COLO 205 = details: Homo sapiens, single dose 10 µM, '-' = no inhibition, read-out: % Growth Inhibition
Procedure, shortened: as §1

OVCAR-4 = details: Homo sapiens, single dose 10 µM, '-' = no inhibition, read-out: % Growth Inhibition
Procedure, shortened: as §1

UACC-257 = details: Homo sapiens, single dose 10 µM, '-' = no inhibition, read-out: % Growth Inhibition
Procedure, shortened: as §1

U251 = details: Homo sapiens, U-251, single dose 10 µM, '-' = no inhibition, read-out: % Growth Inhibition
Procedure, shortened: as §1

MDA-MB-435 = details: Homo sapiens, single dose 10 µM, '-' = no inhibition, read-out: % Growth Inhibition
Procedure, shortened: as §1

SR = details: Homo sapiens, single dose 10 µM, '-' = no inhibition, read-out: % Growth Inhibition
Procedure, shortened: as §1

SW-620 = details: Homo sapiens, single dose 10 µM, '-' = no inhibition, read-out: % Growth Inhibition
Procedure, shortened: as §1

DU-145 = details: Homo sapiens, single dose 10 µM, '-' = no inhibition, read-out: % Growth Inhibition
Procedure, shortened: as §1

A549/ATCC = details: Homo sapiens, single dose 10 µM, '-' = no inhibition, read-out: % Growth Inhibition
Procedure, shortened: as §1

HCT-116 = details: Homo sapiens, single dose 10 µM, '-' = no inhibition, read-out: % Growth Inhibition
Procedure, shortened: as §1

SK-MEL-2 = details: Homo sapiens, single dose 10 µM, '-' = no inhibition, read-out: % Growth Inhibition
Procedure, shortened: as §1

SF-268 = details: Homo sapiens, single dose 10 µM, '-' = no inhibition, read-out: % Growth Inhibition
Procedure, shortened: as §1

SNB-75 = details: Homo sapiens, single dose 10 µM, '-' = no inhibition, read-out: % Growth Inhibition
Procedure, shortened: as §1

HOP-62 = details: Homo sapiens, single dose 10 µM, '-' = no inhibition, read-out: % Growth Inhibition
Procedure, shortened: as §1

HT29 = details: Homo sapiens, HT-29, single dose 10 µM, '-' = no inhibition, read-out: % Growth Inhibition
Procedure, shortened: as §1

HCC-2998 = details: Homo sapiens, single dose 10 µM, '-' = no inhibition, read-out: % Growth Inhibition
Procedure, shortened: as §1

HOP-92 = details: Homo sapiens, single dose 10 µM, '-' = no inhibition, read-out: % Growth Inhibition
Procedure, shortened: as §1

786-0 = details: Homo sapiens, single dose 10 µM, '-' = no inhibition, read-out: % Growth Inhibition
Procedure, shortened: as §1

K-562 = details: Homo sapiens, K562, single dose 10 µM, '-' = no inhibition, read-out: % Growth Inhibition
Procedure, shortened: as §1

SK-MEL-28 = details: Homo sapiens, single dose 10 µM, '-' = no inhibition, read-out: % Growth Inhibition
Procedure, shortened: as §1

SF-539 = details: Homo sapiens, single dose 10 µM, '-' = no inhibition, read-out: % Growth Inhibition
Procedure, shortened: as §1

HS 578T = details: Homo sapiens, single dose 10 µM, '-' = no inhibition, read-out: % Growth Inhibition
Procedure, shortened: as §1

RXF 393 = details: Homo sapiens, single dose 10 µM, '-' = no inhibition, read-out: % Growth Inhibition
Procedure, shortened: as §1

MALME-3M = details: Homo sapiens, single dose 10 µM, '-' = no inhibition, read-out: % Growth Inhibition
Procedure, shortened: as §1

RPMI-8226 = details: Homo sapiens, single dose 10 µM, '-' = no inhibition, read-out: % Growth Inhibition
Procedure, shortened: as §1

HL-60(TB) = details: Homo sapiens, single dose 10 µM, '-' = no inhibition, read-out: % Growth Inhibition
ACHN 1 = details: Homo sapiens, single dose 10 µM, '-' = no inhibition, read-out: % Growth Inhibition
Procedure, shortened: as §1

T-47D = details: Homo sapiens, T47D, single dose 10 µM, '-' = no inhibition, read-out: % Growth Inhibition
Procedure, shortened: as §1

MDA-MB-468 = details: Homo sapiens, single dose 10 µM, '-' = no inhibition, read-out: % Growth Inhibition
Procedure, shortened: as §1

A498 = details: Homo sapiens, single dose 10 µM, '-' = no inhibition, read-out: % Growth Inhibition
Procedure, shortened: as §1

NCI-H322M = details: Homo sapiens, single dose 10 µM, '-' = no inhibition, read-out: % Growth Inhibition
Procedure, shortened: as §1

EKVX = details: Homo sapiens, single dose 10 µM, '-' = no inhibition, read-out: % Growth Inhibition
Procedure, shortened: as §1

SF-295 = details: Homo sapiens, single dose 10 µM, '-' = no inhibition, read-out: % Growth Inhibition
Procedure, shortened: as §1

SK-OV-3 = details: Homo sapiens, single dose 10 µM, '-' = no inhibition, read-out: % Growth Inhibition
Procedure, shortened: as §1

PC-3 = details: Homo sapiens, single dose 10 µM, '-' = no inhibition, read-out: % Growth Inhibition
Procedure, shortened: as §1

OVCAR-8 = details: Homo sapiens, single dose 10 µM, '-' = no inhibition, read-out: % Growth Inhibition
Procedure, shortened: as §1

BT-549 = details: Homo sapiens, single dose 10 µM, '-' = no inhibition, read-out: % Growth Inhibition
Procedure, shortened: as §1

M14 = details: Homo sapiens, single dose 10 µM, '-' = no inhibition, read-out: % Growth Inhibition
Procedure, shortened: as §1

TK-10 = details: Homo sapiens, single dose 10 µM, '-' = no inhibition, read-out: % Growth Inhibition
Procedure, shortened: as §1

SK-MEL-5 = details: Homo sapiens, single dose 10 µM, '-' = no inhibition, read-out: % Growth Inhibition
Procedure, shortened: as §1

CCRF-CEM = details: Homo sapiens, single dose 10 µM, '-' = no inhibition, read-out: % Growth Inhibition
Procedure, shortened: as §1

KM12 = details: Homo sapiens, single dose 10 µM, '-' = no inhibition, read-out: % Growth Inhibition
Procedure, shortened: as §1

OVCAR-5 = details: Homo sapiens, single dose 10 µM, '-' = no inhibition, read-out: % Growth Inhibition
Procedure, shortened: as §1

NCI-H460 = details: Homo sapiens, single dose 10 µM, '-' = no inhibition, read-out: % Growth Inhibition
Procedure, shortened: as §1

NCI-H23 = details: Homo sapiens, single dose 10 µM, '-' = no inhibition, read-out: % Growth Inhibition
Procedure, shortened: as §1

SN12C = details: Homo sapiens, single dose 10 µM, '-' = no inhibition, read-out: % Growth Inhibition
Procedure, shortened: as §1

MCF7 = details: Homo sapiens, single dose 10 µM, '-' = no inhibition, read-out: % Growth Inhibition
Procedure, shortened: as §1

COc1ccc(-c2cc(-c3ccc(Cl)cc3)nc(SCc3ccccc3)n2)cc1OC [Compound 28, 2-(Benzylthio)-4-(4-chlorophenyl)-6-(3,4-dimethoxyphenyl)pyrimidine]
inhibition at 10 µM (IGROV1): < 0%
inhibition at 10 µM (COLO 205): 3.49%
inhibition at 10 µM (OVCAR-4): 21.5%
inhibition at 10 µM (UACC-257): 15.3%
inhibition at 10 µM (U251): 13.1%
inhibition at 10 µM (MDA-MB-435): 15.2%
inhibition at 10 µM (SR): 39.4%
inhibition at 10 µM (SW-620): 2.79%
inhibition at 10 µM (DU-145): 8.2%
inhibition at 10 µM (A549/ATCC): 18.9%
inhibition at 10 µM (HCT-116): 25.9%
inhibition at 10 µM (SK-MEL-2): 12%
inhibition at 10 µM (SF-268): 10.8%
inhibition at 10 µM (SNB-75): < 0%
inhibition at 10 µM (HOP-62): < 0%
inhibition at 10 µM (HT29): 18.7%
inhibition at 10 µM (HCC-2998): < 0%
inhibition at 10 µM (HOP-92): 0.63%
inhibition at 10 µM (786-0): 7.96%
inhibition at 10 µM (K-562): 30.9%
inhibition at 10 µM (SK-MEL-28): 4.01%
inhibition at 10 µM (SF-539): 17.8%
inhibition at 10 µM (HS 578T): 18.2%
inhibition at 10 µM (RXF 393): < 0%
inhibition at 10 µM (MALME-3M): < 0%
inhibition at 10 µM (RPMI-8226): 24.3%
inhibition at 10 µM (HL-60(TB)): 21.4%
inhibition at 10 µM (ACHN 1): 13.1%
inhibition at 10 µM (T-47D): 33%
inhibition at 10 µM (MDA-MB-468): 6.53%
inhibition at 10 µM (A498): 0.85%
inhibition at 10 µM (NCI-H322M): < 0%
inhibition at 10 µM (EKVX): 22.2%
inhibition at 10 µM (SF-295): 7.84%
inhibition at 10 µM (SK-OV-3): 2.92%
inhibition at 10 µM (PC-3): 19%
inhibition at 10 µM (OVCAR-8): 8.97%
inhibition at 10 µM (BT-549): 3.64%
inhibition at 10 µM (M14): 0.81%
inhibition at 10 µM (TK-10): < 0%
inhibition at 10 µM (SK-MEL-5): 30.1%
inhibition at 10 µM (CCRF-CEM): 17.4%
inhibition at 10 µM (KM12): 23.2%
inhibition at 10 µM (OVCAR-5): 6.33%
inhibition at 10 µM (NCI-H460): 14.8%
inhibition at 10 µM (NCI-H23): 2.2%
inhibition at 10 µM (SN12C): 23.1%
inhibition at 10 µM (MCF7): 12.9%

COc1ccc(CSc2nc(-c3ccc(Cl)cc3)cc(-c3ccc(OC)c(OC)c3)n2)cc1 [Compound 29, 2-(4-Methoxybenzylthio)-4-(4-chlorophenyl)-6-(3,4-dimethoxyphenyl)pyrimidine]
inhibition at 10 µM (IGROV1): 6.14%
inhibition at 10 µM (COLO 205): 11.3%
inhibition at 10 µM (OVCAR-4): 21.9%
inhibition at 10 µM (UACC-257): 0.85%
inhibition at 10 µM (U251): 23.3%
inhibition at 10 µM (MDA-MB-435): 22.8%
inhibition at 10 µM (SR): 45.8%
inhibition at 10 µM (SW-620): 12.7%
inhibition at 10 µM (DU-145): 28.6%
inhibition at 10 µM (A549/ATCC): 30.1%
inhibition at 10 µM (HCT-116): 30.2%
inhibition at 10 µM (SK-MEL-2): 13.7%
inhibition at 10 µM (SF-268): 33%
inhibition at 10 µM (SNB-75): 1.93%
inhibition at 10 µM (HOP-62): 16.4%
inhibition at 10 µM (HT29): 38%
inhibition at 10 µM (HCC-2998): < 0%
inhibition at 10 µM (HOP-92): 20.6%
inhibition at 10 µM (786-0): 11.6%
inhibition at 10 µM (K-562): 54.5%
inhibition at 10 µM (SK-MEL-28): 11.3%
inhibition at 10 µM (SF-539): 14.7%
inhibition at 10 µM (HS 578T): 37.5%
inhibition at 10 µM (RXF 393): 24.2%
inhibition at 10 µM (MALME-3M): 4.95%
inhibition at 10 µM (RPMI-8226): 36.9%
inhibition at 10 µM (HL-60(TB)): 38.8%
inhibition at 10 µM (ACHN 1): 13.2%
inhibition at 10 µM (T-47D): 34.6%
inhibition at 10 µM (MDA-MB-468): 40.2%
inhibition at 10 µM (A498): < 0%
inhibition at 10 µM (NCI-H322M): 17.4%
inhibition at 10 µM (EKVX): 29.7%
inhibition at 10 µM (SF-295): 16.7%
inhibition at 10 µM (SK-OV-3): 13.9%
inhibition at 10 µM (PC-3): 36.4%
inhibition at 10 µM (OVCAR-8): 19.4%
inhibition at 10 µM (BT-549): 21.4%
inhibition at 10 µM (M14): 19.3%
inhibition at 10 µM (TK-10): < 0%
inhibition at 10 µM (SK-MEL-5): 22.6%
inhibition at 10 µM (CCRF-CEM): 14.2%
inhibition at 10 µM (KM12): 24.8%
inhibition at 10 µM (OVCAR-5): 7.38%
inhibition at 10 µM (NCI-H460): 21.2%
inhibition at 10 µM (NCI-H23): 14.6%
inhibition at 10 µM (SN12C): 35.6%
inhibition at 10 µM (MCF7): 27.4%
